In patent US20250163024A1, “CHEMICAL TARGETING SWI/SNF RELATED, MATRIX ASSOCIATED, ACTIN DEPENDENT REGULATOR OF CHROMATIN, SUBFAMILY A, MEMBER 4 (SMARCA4) AND USE IN DIFFUSE INTRINSIC PONTINE GLIOMA (DIPG)” (DANA-FARBER CANCER INSTITUTE, INC., priority 2022, published 2025):
Where two headings read alike, the source gives them in different places.

How the values were obtained:
Type in all cases: cell-based
[1] = tested on: MV411 (human myelomonocytic leukemia) cells; test: Cell proliferation assay (ATPlite cell viability) in MV411 cells; settings: for IC50: Homo sapiens, MV4-11, 48 hours
Experimental: (§1) 2000 cells were seeded in 50 μL of RPMI medium in each well of a white, solid bottomed 384-well plate. Plates were spun down briefly, and seeded cells were pinned with […] of the bifunctional compound at serial three-fold diluted concentrations using the JANUS® Liquid Handling Workstation. Plates were incubated at 37° C. in 5% CO2 for the indicated treatment time (48 hours). After compound treatment, 15 μL of 1:2 solution of ATPlite™ 1Step diluted in PBS was added to each well of the 384-well plates. Plates were put on a plate shaker for 1 minute and incubated at room temperature for 9 minutes, and the resulting luminescence signal was read using an EnVision® plate reader. Cell viability was calculated by normalizing luminescence signals of SMARC compound treated cells to that of vehicle treated cells.

[2] = tested on: MOLM13 (acute monocytic leukemia) cells; test: Cell proliferation assay (ATPlite cell viability) in MOLM13 cells; settings: for IC50: Homo sapiens
Experimental: as §1, with “Plates were incubated at 37° C. in 5% CO2 for the indicated treatment time (48 hours).” left out

[3] = molecular target: T1, SMARCA4 (BRG) (Homo sapiens, UniProt P51532); test: Cellular degradation of SMARCA4 in NOMO-1 cells (western blot); settings: NOMO1 cells, low micromolar treatment, 24 hours, western blot FIG. 1A-1B
T1 construct: endogenous in cells; host or cells: NOMO-1 cells
T1 sequence (P51532 whole entry): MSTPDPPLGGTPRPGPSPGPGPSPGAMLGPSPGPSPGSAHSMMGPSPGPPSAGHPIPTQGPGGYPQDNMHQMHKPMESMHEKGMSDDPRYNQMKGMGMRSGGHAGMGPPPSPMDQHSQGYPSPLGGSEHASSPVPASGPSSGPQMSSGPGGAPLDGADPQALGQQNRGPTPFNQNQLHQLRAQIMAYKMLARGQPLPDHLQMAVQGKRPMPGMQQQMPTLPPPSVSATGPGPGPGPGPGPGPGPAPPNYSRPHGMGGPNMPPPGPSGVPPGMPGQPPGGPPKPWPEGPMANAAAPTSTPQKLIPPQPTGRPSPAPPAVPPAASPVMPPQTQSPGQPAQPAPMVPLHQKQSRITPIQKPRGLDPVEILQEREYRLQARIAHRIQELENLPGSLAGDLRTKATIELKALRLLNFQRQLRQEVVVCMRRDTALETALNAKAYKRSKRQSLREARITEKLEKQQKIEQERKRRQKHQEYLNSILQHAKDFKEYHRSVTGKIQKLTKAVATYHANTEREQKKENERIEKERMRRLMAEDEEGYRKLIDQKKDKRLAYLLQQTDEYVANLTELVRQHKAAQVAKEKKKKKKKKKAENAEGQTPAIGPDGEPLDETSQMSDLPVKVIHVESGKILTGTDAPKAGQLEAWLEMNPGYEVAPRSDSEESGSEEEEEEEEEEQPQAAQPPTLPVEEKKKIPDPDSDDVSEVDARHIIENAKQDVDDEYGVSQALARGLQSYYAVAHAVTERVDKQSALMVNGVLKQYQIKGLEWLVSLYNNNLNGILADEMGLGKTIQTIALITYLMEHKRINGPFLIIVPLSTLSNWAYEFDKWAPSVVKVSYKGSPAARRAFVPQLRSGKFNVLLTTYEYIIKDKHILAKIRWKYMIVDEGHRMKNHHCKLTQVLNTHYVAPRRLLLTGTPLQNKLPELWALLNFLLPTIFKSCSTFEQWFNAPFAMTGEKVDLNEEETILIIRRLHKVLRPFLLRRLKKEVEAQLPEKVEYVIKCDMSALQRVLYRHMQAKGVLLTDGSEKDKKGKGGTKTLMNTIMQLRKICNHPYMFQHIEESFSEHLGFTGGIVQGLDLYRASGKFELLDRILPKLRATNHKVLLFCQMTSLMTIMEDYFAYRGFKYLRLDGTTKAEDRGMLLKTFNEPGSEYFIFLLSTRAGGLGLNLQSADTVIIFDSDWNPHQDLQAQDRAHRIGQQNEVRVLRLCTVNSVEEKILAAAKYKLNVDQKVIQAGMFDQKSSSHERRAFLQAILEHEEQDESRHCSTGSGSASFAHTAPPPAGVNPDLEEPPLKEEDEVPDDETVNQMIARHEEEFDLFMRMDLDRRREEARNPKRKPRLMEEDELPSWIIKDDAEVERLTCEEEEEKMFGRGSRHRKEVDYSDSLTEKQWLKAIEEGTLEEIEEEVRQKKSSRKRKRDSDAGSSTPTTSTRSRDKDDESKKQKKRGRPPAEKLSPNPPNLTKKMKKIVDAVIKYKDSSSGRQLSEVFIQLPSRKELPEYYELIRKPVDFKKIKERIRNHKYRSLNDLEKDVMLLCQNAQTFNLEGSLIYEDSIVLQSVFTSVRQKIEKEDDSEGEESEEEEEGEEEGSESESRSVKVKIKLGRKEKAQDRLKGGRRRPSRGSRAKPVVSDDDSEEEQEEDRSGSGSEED
Experimental: For each tested condition, 1 million cells were seeded into a well of a 6-well plate. After overnight incubation at 37° C. in 5% CO2, cells were treated with either DMSO or varying doses of the indicated bifunctional compound and put back into the incubator for the indicated treatment time. Treated cells were collected by transferring cell suspensions from 6-well plate wells into microcentrifuge tubes and spinning down samples at 3000 rpm for 3 minutes. Supernatant was discarded and all samples were washed with phosphate-buffered saline (PBS) to remove any remaining compound from the cells. Cells were lysed using radioimmunoprecipitation assay (RIPA) buffer and sonicated on ice for 3 seconds at 25% amplification and allowed to rest for 15-30 minutes. Lysates were then spun down at 15000 rpm for 10 minutes and supernatant was collected. Protein concentration was measured using the Pierce™ bicinchoninic acid (BCA) Protein Assay Kit from ThermoFisher Scientific according to the manufacturer's instructions. Equivalent amounts of protein were resolved by western blotting using 4-12% Bis-Tris NuPAGE™ gels (Thermo-Fisher Scientific) prior to transfer and overnight immunoblotting using primary antibodies to the proteins indicated. […]

[4] = MOLM-13, 72 h (starred values), read-out: IC50 (μM) MOLM13, *72 h
[5] = MOLM-13, 48 hours, read-out: IC50 (μM) MOLM13-48h

SMILES | IC50 [1] [µM] | IC50 [2, 5] [µM] | other results
O=C1CCC(N2C(=O)c3cccc(NCCOCCOCCNC(=O)c4cccc(C#Cc5cc(NC(=O)Nc6ccnc(Cl)c6)ccn5)c4)c3C2=O)C(=O)N1 (stereo not drawn) [Compound 18] | 0.109 | – | IC50 [2, 4]: 1.28 µM
O=C1CCC(N2C(=O)c3cccc(NCCCCNC(=O)c4ccc(C#Cc5cc(NC(=O)Nc6ccnc(Cl)c6)ccn5)cc4)c3C2=O)C(=O)N1 (stereo not drawn) [Compound 6, 4-((4-(3-(2-chloropyridin-4-yl)ureido)pyridin-2-yl)ethynyl)-N-(4-((2-(2,6-dioxopiperidin-3-yl)-1,3-dioxoisoindolin-4-yl)amino)butyl)benzamide] | – | – | BRG (SMARCA4) degradation [3]: significantly degraded
O=C1CCC(N2C(=O)c3ccc(NCCCCNC(=O)c4cccc(C#Cc5cc(NC(=O)Nc6ccnc(Cl)c6)ccn5)c4)cc3C2=O)C(=O)N1 (stereo not drawn) [Compound 21] | 0.0102 | 0.0793 | –
O=C1CCC(N2C(=O)c3cccc(NCCNC(=O)c4cccc(C#Cc5cc(NC(=O)Nc6ccnc(Cl)c6)ccn5)c4)c3C2=O)C(=O)N1 (stereo not drawn) [Compound 23] | 21.7 | 6.18 | –
O=C1CCC(N2C(=O)c3cccc(NCCCCCCNC(=O)c4cccc(C#Cc5cc(NC(=O)Nc6ccnc(Cl)c6)ccn5)c4)c3C2=O)C(=O)N1 (stereo not drawn) [Compound 24] | 0.0389 | 0.344 | –
O=C1CCC(N2C(=O)c3cccc(NCCCCNC(=O)c4cccc(C#Cc5cc(NC(=O)Nc6ccnc(Cl)c6)ccn5)c4)c3C2=O)C(=O)N1 (racemic) [Compound 19, 3-((4-(3-(2-chloropyridin-4-yl)ureido)pyridin-2-yl)ethynyl)-N-(4-((2-(2,6-dioxopiperidin-3-yl)-1,3-dioxoisoindolin-4-yl)amino)butyl)benzamide] | 0.109 | 0.0571 | IC50 (μM) MV411-48h [1]: submicromolar; IC50 (μM) MOLM13-48h ([2]; 48 hours): submicromolar
O=C1CCC(N2C(=O)c3cccc(NCCCCCCCCNC(=O)c4cccc(C#Cc5cc(NC(=O)Nc6ccnc(Cl)c6)ccn5)c4)c3C2=O)C(=O)N1 (stereo not drawn) [Compound 17] | 0.491 | – | IC50 [2, 4]: 0.566 µM
O=C1CCC(N2C(=O)c3cccc(NCCCCNC(=O)c4cccc(CCc5cc(NC(=O)Nc6ccnc(Cl)c6)ccn5)c4)c3C2=O)C(=O)N1 (stereo not drawn) [Compound 5, 3-(2-(4-(3-(2-chloropyridin-4-yl)ureido)pyridin-2-yl)ethyl)-N-(4-((2-(2,6-dioxopiperidin-3-yl)-1,3-dioxoisoindolin-4-yl)amino)butyl)benzamide] | – | – | BRG (SMARCA4) degradation [3]: significantly degraded
O=C1CCC(N2C(=O)c3ccc(NCCOCCNC(=O)c4cccc(C#Cc5cc(NC(=O)Nc6ccnc(Cl)c6)ccn5)c4)cc3C2=O)C(=O)N1 (stereo not drawn) [Compound 22] | 0.037 | 0.253 | –
